From ChEMBL document CHEMBL5107949, “Design, synthesis, and antibacterial activity of N-(trifluoromethyl)phenyl substituted pyrazole derivatives” (RSC Med Chem, 2021)
≈ marks a conversion by molar mass, not a printed value. Calls of active or inactive are those of the source. No cut-off for these calls is given here.

How the values were obtained:
Enterococcus faecium [1] = assay: Antibacterial activity against Enterococcus faecium clinical isolate 1088228 assessed as inhibition of bacterial growth by CLSI protocol based broth microdilution method; format: functional
Staphylococcus aureus [2] = assay: Antibacterial activity against Staphylococcus aureus clinical isolate 1088626 assessed as inhibition of bacterial growth by CLSI protocol based broth microdilution method; format: functional
Staphylococcus aureus [3] = assay: Antibacterial activity against Staphylococcus aureus clinical isolate 1088064 assessed as inhibition of bacterial growth by CLSI protocol based broth microdilution method; format: functional
Enterococcus faecium [4] = assay: Antibacterial activity against Enterococcus faecium clinical isolate 1089544 assessed as inhibition of bacterial growth by CLSI protocol based broth microdilution method; format: functional
Enterococcus faecalis [5] = assay: Antibacterial activity against Enterococcus faecalis clinical isolate 1091563 assessed as inhibition of bacterial growth by CLSI protocol based broth microdilution method; format: functional
Enterococcus faecalis [6] = assay: Antibacterial activity against Enterococcus faecalis clinical isolate 1100440 assessed as inhibition of bacterial growth by CLSI protocol based broth microdilution method; format: functional
Staphylococcus aureus [7] = assay: Antibacterial activity against Staphylococcus aureus clinical isolate 1088105 assessed as inhibition of bacterial growth by CLSI protocol based broth microdilution method; format: functional
Staphylococcus aureus [8] = assay: Antibacterial activity against Staphylococcus aureus clinical isolate 1088610 assessed as inhibition of bacterial growth by CLSI protocol based broth microdilution method; format: functional
Enterococcus faecium [9] = assay: Antibacterial activity against Enterococcus faecium clinical isolate 1091282 assessed as inhibition of bacterial growth by CLSI protocol based broth microdilution method; format: functional
Staphylococcus aureus [10] = assay: Antibacterial activity against Staphylococcus aureus clinical isolate 1088060 assessed as inhibition of bacterial growth by CLSI protocol based broth microdilution method; format: functional
Enterococcus faecalis [11] = assay: Antibacterial activity against Enterococcus faecalis clinical isolate 1091720 assessed as inhibition of bacterial growth by CLSI protocol based broth microdilution method; format: functional
Enterococcus faecalis [12] = assay: Antibacterial activity against Enterococcus faecalis clinical isolate 1094112 assessed as inhibition of bacterial growth by CLSI protocol based broth microdilution method; format: functional
Staphylococcus aureus [13] = assay: Antibacterial activity against Staphylococcus aureus clinical isolate 1088888 assessed as inhibition of bacterial growth by CLSI protocol based broth microdilution method; format: functional
Enterococcus faecium [14] = assay: Antibacterial activity against Enterococcus faecium clinical isolate 1088168 assessed as inhibition of bacterial growth by CLSI protocol based broth microdilution method; format: functional
Staphylococcus aureus [15] = assay: Antibacterial activity against Staphylococcus aureus clinical isolate 1089106 assessed as inhibition of bacterial growth by CLSI protocol based broth microdilution method; format: functional
Enterococcus faecium [16] = assay: Antibacterial activity against Enterococcus faecium clinical isolate 1088925 assessed as inhibition of bacterial growth by CLSI protocol based broth microdilution method; format: functional
Enterococcus faecalis [17] = assay: Antibacterial activity against Enterococcus faecalis clinical isolate 1088051 assessed as inhibition of bacterial growth by CLSI protocol based broth microdilution method; format: functional
Staphylococcus aureus [18] = assay: Antibacterial activity against antibiotic resistant Staphylococcus aureus BAA-2312 assessed as inhibition of bacterial growth by CLSI protocol based broth microdilution method; format: functional
Staphylococcus aureus [19] = assay: Antibacterial activity against antibiotic resistant Staphylococcus aureus ATCC 33591 assessed as inhibition of bacterial growth by CLSI protocol based broth microdilution method; format: functional
Enterococcus faecalis [20] = assay: Antibacterial activity against antibiotic susceptible Enterococcus faecalis ATCC 29212 assessed as inhibition of bacterial growth by CLSI protocol based broth microdilution method; format: functional
Staphylococcus aureus [21] = assay: Antibacterial activity against antibiotic resistant Staphylococcus aureus ATCC 33592 assessed as inhibition of bacterial growth by CLSI protocol based broth microdilution method; format: functional
Staphylococcus aureus [22] = assay: Antibacterial activity against antibiotic susceptible Staphylococcus aureus ATCC 25923 assessed as inhibition of bacterial growth by CLSI protocol based broth microdilution method; format: functional
Staphylococcus aureus [23] = assay: Antibacterial activity against antibiotic resistant Staphylococcus aureus ATCC 700699 assessed as inhibition of bacterial growth by CLSI protocol based broth microdilution method; format: functional
Enterococcus faecium [24] = assay: Antibacterial activity against vancomycin resistant Enterococcus faecium ATCC 700221 assessed as inhibition of bacterial growth by CLSI protocol based broth microdilution method; format: functional
[25] = system: Staphylococcus epidermidis; assay: Antibacterial activity against antibiotic resistant Staphylococcus epidermidis ATCC 700296 assessed as inhibition of bacterial growth by CLSI protocol based broth microdilution method; format: functional
Bacillus subtilis = assay: Antibacterial activity against antibiotic resistant Bacillus subtilis ATCC 6623 assessed as inhibition of bacterial growth by CLSI protocol based broth microdilution method; format: functional
Staphylococcus aureus [26] = assay: Anti-biofilm activity against Staphylococcus aureus ATCC 25923 assessed as eradication of biofilm formation incubated for 24 hrs by Calgary biofilm device assay; format: functional; details: Staphylococcus aureus, ATCC 25923
Enterococcus faecalis [27] = assay: Anti-biofilm activity against Enterococcus faecalis ATCC 29212 assessed as minimum bactericidal concentration incubated for 24 hrs by Calgary biofilm device assay; details: ATCC 29212, 24 h
Enterococcus faecalis [28] = assay: Anti-biofilm activity against Enterococcus faecalis ATCC 29212 assessed as eradication of biofilm formation incubated for 24 hrs by Calgary biofilm device assay; format: functional
Staphylococcus aureus [29] = assay: Antibacterial activity against Staphylococcus aureus ATCC 25923 assessed as minimum bactericidal concentration incubated for 24 hrs by Calgary biofilm device assay; details: ATCC 25923, 24 h
Staphylococcus aureus [30] = assay: Bactericidal activity against Staphylococcus aureus ATCC 700699 assessed as bacteria elimination at 4 times MIC and measured after 10 hrs by time-kill assay; format: functional, organism-based
[31] = Cytotoxicity against human HEK293 cells reduction in cell viability incubated for 24 hrs by resazurin cell viability assay; format: toxicity, cell-based

SMILES | MIC (Staphylococcus aureus [18]) | MIC (Staphylococcus aureus [19]) | MIC (Enterococcus faecalis [20]) | MIC (Staphylococcus aureus [21]) | MIC (Staphylococcus aureus [22]) | MIC (Staphylococcus aureus [23]) | MIC (Enterococcus faecium [24]) | MIC [25] | MIC (Bacillus subtilis) | other results
Cc1onc(-c2ccccc2)c1C(=O)N[C@@H]1C(=O)N2[C@@H]1SC(C)(C)[C@@H]2C(=O)O [OXACILLIN] |  |  |  |  |  |  |  |  |  | MIC (Enterococcus faecium [1]): > 64 µg/mL; MIC (Staphylococcus aureus [2]): 0.25 µg/mL (≈ 0.623 µM); MIC (Staphylococcus aureus [3]): 64 µg/mL (≈ 159 µM); MIC (Enterococcus faecium [4]): > 64 µg/mL; MIC (Enterococcus faecalis [5]): 64 µg/mL (≈ 159 µM); MIC (Enterococcus faecalis [6]): > 64 µg/mL; MIC (Staphylococcus aureus [7]): 0.25 µg/mL (≈ 0.623 µM); MIC (Staphylococcus aureus [8]): 64 µg/mL (≈ 159 µM); MIC (Enterococcus faecium [9]): > 64 µg/mL; MIC (Staphylococcus aureus [10]): 0.5 µg/mL (≈ 1.25 µM); MIC (Enterococcus faecalis [11]): 64 µg/mL (≈ 159 µM); MIC (Enterococcus faecalis [12]): > 64 µg/mL; MIC (Staphylococcus aureus [13]): > 64 µg/mL; MIC (Enterococcus faecium [14]): > 64 µg/mL; MIC (Staphylococcus aureus [15]): 64 µg/mL (≈ 159 µM); MIC (Enterococcus faecium [16]): > 64 µg/mL; MIC (Enterococcus faecalis [17]): 64 µg/mL (≈ 159 µM)
Cc1cc(NCc2cn(-c3ccc(C(F)(F)F)cc3)nc2-c2ccc(C(=O)O)cc2)ccc1F | 25 µg/mL (≈ 53.3 µM) | 25 µg/mL (≈ 53.3 µM) | 25 µg/mL (≈ 53.3 µM) | 6.25 µg/mL (≈ 13.3 µM) | 12.5 µg/mL (≈ 26.6 µM) | 6.25 µg/mL (≈ 13.3 µM) | 12.5 µg/mL (≈ 26.6 µM) | 25 µg/mL (≈ 53.3 µM) | 12.5 µg/mL (≈ 26.6 µM) | 
O=C(O)c1ccc(-c2nn(-c3ccc(C(F)(F)F)cc3)cc2CNc2cccc(Cl)c2F)cc1 | 6.25 µg/mL (≈ 12.8 µM) | 6.25 µg/mL (≈ 12.8 µM) | 12.5 µg/mL (≈ 25.5 µM) | 3.12 µg/mL (≈ 6.37 µM) | 3.12 µg/mL (≈ 6.37 µM) | 3.12 µg/mL (≈ 6.37 µM) | 6.25 µg/mL (≈ 12.8 µM) | 12.5 µg/mL (≈ 25.5 µM) | 1.56 µg/mL (≈ 3.18 µM) | 
CN[C@H](CC(C)C)C(=O)N[C@H]1C(=O)N[C@@H](CC(N)=O)C(=O)N[C@H]2C(=O)N[C@H]3C(=O)N[C@H](C(=O)N[C@H](C(=O)O)c4cc(O)cc(O)c4-c4cc3ccc4O)[C@H](O)c3ccc(c(Cl)c3)Oc3cc2cc(c3O[C@@H]2O[C@H](CO)[C@@H](O)[C@H](O)[C@H]2O[C@H]2C[C@](C)(N)[C@H](O)[C@H](C)O2)Oc2ccc(cc2Cl)[C@H]1O [VANCOMYCIN] | 0.78 µg/mL (≈ 0.538 µM) |  | 3.12 µg/mL (≈ 2.15 µM) |  | 0.78 µg/mL (≈ 0.538 µM) | 3.12 µg/mL (≈ 2.15 µM) | > 50 µg/mL | 3.12 µg/mL (≈ 2.15 µM) | 0.39 µg/mL (≈ 0.269 µM) | MIC (Enterococcus faecium [1]): > 32 µg/mL; MBEC (Staphylococcus aureus [26]): > 50 µg/mL; MBC (Enterococcus faecalis [27]): 25 µg/mL (≈ 17.3 µM); MIC (Enterococcus faecium [4]): > 32 µg/mL; MIC (Enterococcus faecalis [5]): > 32 µg/mL; MIC (Enterococcus faecalis [6]): > 32 µg/mL; MBEC (Enterococcus faecalis [28]): >50 µg/mL; MIC (Enterococcus faecium [9]): > 32 µg/mL; MIC (Enterococcus faecalis [11]): > 32 µg/mL; MIC (Enterococcus faecalis [12]): > 32 µg/mL; MIC (Enterococcus faecium [14]): > 32 µg/mL; MIC (Enterococcus faecium [16]): > 32 µg/mL; MIC (Enterococcus faecalis [17]): > 32 µg/mL; MBC (Staphylococcus aureus [29]): 6.25 µg/mL (≈ 4.31 µM); Activity (Staphylococcus aureus [30]): Active
Cc1ccc(NCc2cn(-c3ccc(C(F)(F)F)cc3)nc2-c2ccc(C(=O)O)cc2)cc1Cl | 3.12 µg/mL (≈ 6.42 µM) | 6.25 µg/mL (≈ 12.9 µM) | 6.25 µg/mL (≈ 12.9 µM) | 3.12 µg/mL (≈ 6.42 µM) | 3.12 µg/mL (≈ 6.42 µM) | 1.56 µg/mL (≈ 3.21 µM) | 3.12 µg/mL (≈ 6.42 µM) | 6.25 µg/mL (≈ 12.9 µM) | 1.56 µg/mL (≈ 3.21 µM) | IC50 at 24 h [31]: > 12 µg/mL
O=C(O)c1ccc(-c2nn(-c3ccc(C(F)(F)F)cc3)cc2CNc2ccc(Cl)c(Cl)c2)cc1 | 1.56 µg/mL (≈ 3.08 µM) | 1.56 µg/mL (≈ 3.08 µM) | 3.12 µg/mL (≈ 6.16 µM) | 1.56 µg/mL (≈ 3.08 µM) | 1.56 µg/mL (≈ 3.08 µM) | 0.78 µg/mL (≈ 1.54 µM) | 1.56 µg/mL (≈ 3.08 µM) | 3.12 µg/mL (≈ 6.16 µM) | 0.39 µg/mL (≈ 0.77 µM) | IC50 at 24 h [31]: > 12 µg/mL
CC(C)c1ccc(NCc2cn(-c3ccc(C(F)(F)F)cc3)nc2-c2ccc(C(=O)O)cc2)cc1 | 6.25 µg/mL (≈ 13 µM) | 12.5 µg/mL (≈ 26.1 µM) | 6.25 µg/mL (≈ 13 µM) | 3.12 µg/mL (≈ 6.51 µM) | 3.12 µg/mL (≈ 6.51 µM) | 3.12 µg/mL (≈ 6.51 µM) | 3.12 µg/mL (≈ 6.51 µM) | 12.5 µg/mL (≈ 26.1 µM) | 3.12 µg/mL (≈ 6.51 µM) | 
O=C(O)c1ccc(-c2nn(-c3ccc(C(F)(F)F)cc3)cc2CNc2ccc([N+](=O)[O-])cc2)cc1 | 25 µg/mL (≈ 51.8 µM) | 25 µg/mL (≈ 51.8 µM) | 25 µg/mL (≈ 51.8 µM) | 12.5 µg/mL (≈ 25.9 µM) | 25 µg/mL (≈ 51.8 µM) | 12.5 µg/mL (≈ 25.9 µM) | 25 µg/mL (≈ 51.8 µM) | 25 µg/mL (≈ 51.8 µM) | 12.5 µg/mL (≈ 25.9 µM) | 
